In assay [1] the test system is Phakopsora pachyrhizi. The assay is described as follows: Example G1: curative activity against soybean rust, greenhouse, sprayed two days after the 24 h incubation. The note with it: potted soybean seedlings, 150 ppm aqueous preparation sprayed two days after incubation, rated after a further 10 days; untreated plants 90% infected. Type of assay: in vivo. The protocol: (§1) Subsequently, it was made up to 100 ml with water. This stock solution was diluted with the solvent/emulsifier/water mixture described to the active compound concentration indicated below. Alternatively to this, the active compounds were used as a commercially available ready-to-use solution and diluted with water to the active compound concentration indicated. Curative activity against soybean rust caused by Phakopsora pachyrhizi Leaves of potted soybean seedlings were inoculated with a spore suspension of soybean rust (Phakpsora pachyrhizi). […] During this time, the spores germinated and the germ tubes penetrated into the leaf tissue. Infected plants were then cultivated further in a greenhouse at temperatures between 23 and 27° C. and 60 to 80% relative atmospheric humidity. After two days, the plants were sprayed to run off point with the active compound solution described above at the active compound concentration stated below. After the spray coating had dried on, the test plants were cultivated in a greenhouse at temperatures between 23 and 27° C. and 60 to 80% relative atmospheric humidity for a further 10 days. The extent of the rust fungus development on the leaves was then determined visually in % infection.

Assay [2] has as its system Phakopsora pachyrhizi. The assay is described as follows: Example G2: curative activity against soybean rust, greenhouse, sprayed directly after the 24 h incubation. In kind it is in vivo. Particulars: potted soybean seedlings, 150 ppm aqueous preparation sprayed after 24 h incubation, rated after a further 14 days; untreated plants 90% infected. The protocol:
as §1, with “then” for “then cultivated further in a greenhouse at temperatures between 23 and 27° C. and 60 to 80% relative atmospheric humidity. After two days, the plants were”, “further 14” for “further 10”

Structures are written as SMILES.

Turning to `CC(COc1ccccc1Cl)=C(C)CC(C(O)C(C)(C)C)n1cncn1` (centres unmarked) [I.A6b], the “infection (extent of rust fungus development on the leaves, visual)” value with Phakopsora pachyrhizi [1] was 0%.
In the case of `CC(COc1cccc(Cl)c1Cl)=C(C)CC(C(O)C(C)(C)C)n1cncn1` (centres unmarked) [I.A14a], in the assay on Phakopsora pachyrhizi [2], the “infection (extent of rust fungus development on the leaves, visual)” value came to 0%.
